In PMC5615938 (Toxicology Reports, 2016):
Where two headings read alike, the source gives them in different places. Blank lines part the entries; values can stand above or below the compound they belong to.

What was measured:
[1] = biological target: Silver catfish (Synodontis eupterus) major hepatic glutathione transferase (seGST); assay: Product and dead-end inhibition studies of seGST; type: biochemical
[2] = biological target: Silver catfish (Synodontis eupterus) major hepatic glutathione transferase (seGST); type: biochemical; conditions: pH 6.5, 1 mM CDNB and 1 mM GSH
[3] = system: Silver catfish (Synodontis eupterus) major hepatic glutathione transferase (seGST); assay: seGST steady state kinetics, GSH-CDNB conjugation; type: biochemical; conditions: for Km: 0.1-1.2 mM GSH and CDNB, one substrate varied, the other kept constant
GST = conditions: cited from earlier work
[4] = system: Silver catfish (Synodontis eupterus) major hepatic glutathione transferase (seGST); assay: Viscosity dependence of seGST kcat/KM; type: biochemical; conditions: viscosogen added, 25 °C

Compound: 1-methyl glutathione [1−methylglutathione]
- Ki ([1]; read-out: Kis (CDNB varied), CDNB varied): 0.16 µM
- Ki ([1]; read-out: Kis (GSH varied), CDNB fixed at 1.0 mM, GSH 0.1-1.0 mM): 0.09 µM
- IC50 [2]: 16.6 ± 1.58 µM

Compound: O=C1OC(c2ccc(O)c(S(=O)(=O)O)c2)(c2ccc(O)c(S(=O)(=O)O)c2)c2c(Br)c(Br)c(Br)c(Br)c21 [Bromosulphosptlein, bromosulfophthalein]
- IC50 [2]: 47.4 ± 5.67 µM

Compound: O=[N+]([O-])c1ccc(Cl)c([N+](=O)[O-])c1 [CDNB, 1-chloro 2,4-dintrobenzene]
- Km ([3]; 25 °C): 690 ± 170 µM
- KIB (E.CDNB + GSH ⇌ E.CDNB.GSH) ([3]; from secondary plots, GSH-CDNB): 0.48 ± 0.02

Compound: Nc1c(S(=O)(=O)O)cc(Nc2ccc(Nc3nc(Cl)nc(Nc4ccccc4S(=O)(=O)O)n3)c(S(=O)(=O)O)c2)c2c1C(=O)c1ccccc1C2=O [Cibracron Blue]
- IC50 [2]: 0.01 ± 0.001 µM

Compound: C=C(CC)C(=O)c1ccc(OCC(=O)O)c(Cl)c1Cl [Ethacrynic acid]
- IC50 [2]: 21.3 ± 3.22 µM

Compound: [Cl-].[K+] [KCl]
- inhibition pattern in double reciprocal plots ([1]; with respect to GSH and with respect to CDNB): non-competitive inhibition

Compound: [Cl][Sn]([c]1ccccc1)([c]1ccccc1)[c]1ccccc1 [Triphenytin chloride, triphenyltin chloride]
- IC50 [2]: 0.05 ± 0.005 µM

Continued, in another order:

- Km ([3]; 25 °C): 530 ± 50 µM
- kcat[GSH] ([3]; 25 °C, GSH-CDNB conjugation): 44.62 ± 1.124 s⁻¹
- KA (E.GSH + CDNB ⇌ E.GSH.CDNB) ([3]; from secondary plots, GSH-CDNB): 0.64 ± 0.04
- KIA (E.GSH) ([3]; from secondary plots, GSH-CDNB): 0.14 ± 0.01
Compound: N[C@@H](CCC(=O)N[C@@H](CS)C(=O)NCC(=O)O)C(=O)O [GSH, Reduced glutathione]
- pKa of GSH (GST; before lowering by GST): 9.0
- pKa of the bound GSH (GST; bound to GST): about 6.5

- IC50 [2]: 5 ± 0.1 µM
Compound: C=CC1=C(C)c2cc3[n-]c(cc4[n-]c(cc5nc(cc1n2)C(C)=C5C=C)c(C)c4CCC(=O)O)c(CCC(=O)O)c3C.[Fe+2] [Hematin]

- catalytic efficiency indicated by the exponential value [4]: 23%
- exponential value of (kcat/KM)^0/(kcat/KM) versus relative viscosity ([4]; 0.1 M potassium phosphate buffer pH 6.5): 0.227
Compound: OCC(O)CO [glycerol, Glycerol]

- IC50 [2]: 17.6 ± 1.3 µM
Compound: CCCCCCSC[C@H](NC(=O)CC[C@H](N)C(=O)O)C(=O)NCC(=O)O [s-hexylglutathione]
